Converted amounts (≈) assume the structure as drawn. Each block holds one compound with its values, some of them ahead of it.
Legend:
[1] = Thermodynamic solubility of the polymorphic forms in organic solvents (HPLC quantification); assay type: physicochemical
Description: The thermodynamic solubility of FORM 1, FORM 2, FORM 4, and FORM 6 of 1,6-Bis [3-(3-carboxymethylphenyl)-4-(2-α-D-mannopyranosyloxy)-phenyl] hexane (compound of formula (I)) was determined in several organic solvents by suspending sufficient compound to give a maximum final concentration. Quantification was by reverse phase HPLC with gradient solution with reference to a standard solution of FORM B of the compound of formula (I) at 0.25 mg/ml. The suspensions were equilibrated at 27° C. for 24 hours with shaking. All suspensions were filtered though a glass fibre C filter. The filtrate was then diluted by an appropriate factor in 50:50 ethanol:water apart from isopropyl myristate which was diluted in ethanol to avoid emulsion formation.
Solubilities were calculated using the peak areas determined by the peak found at the same retention time as the principal peak in the standard injection.

[2] = Thermodynamic solubility of the polymorphic forms in water (shake flask technique, UV); assay type: physicochemical; conditions: pure water, over night at 25° C., triplicate
Description: The thermodynamic solubility of FORM 1, FORM 2, and FORM 3 of 1,6-Bis [3-(3-carboxymethylphenyl)-4-(2-α-D-mannopyranosyloxy)-phenyl] hexane (compound of formula (I)) was determined in water by employing the shake flask technique. The sample was added to pure water in a Safelock-tube (Eppendorf, Germany) under vigorous shaking until a white precipitate was formed. The saturated solution was incubated over night at 25° C. in an Eppendorf Thermomixer operated at 700 RPM. The suspension was cleared by centrifugation at 13.000 RPM at room temperature, and the supernatant was carefully collected. The supernatant was further purified by vacuum-filtration through a Millipore solubility filter plate (Millipore, Molsheim, France).
The UV absorption of the filtrate was measured against pure water using a Spectramax250 (Molecular Devices, Sunnyvale, Calif.) operated with Softmax Pro v. 4.8 software, using the application “Mscreen solubility quantify” in the ADME package. The sample concentration was calculated using a 5-point linear calibration line of the compound of formula (I) in acetonitrile:pure water (1:1 vol:vol). Measurements have been performed in triplicate.

[3] = PEG 300, equilibrated at 27° C. for 24 hours with shaking
[4] = Triacetin, equilibrated at 27° C. for 24 hours with shaking
[5] = ethanol, equilibrated at 27° C. for 24 hours with shaking
[6] = equilibrated at 27° C. for 24 hours with shaking

Structure (SMILES): O=C(O)Cc1cccc(-c2cc(CCCCCCc3ccc(O[C@H]4O[C@H](CO)[C@@H](O)[C@H](O)[C@@H]4O)c(-c4cccc(CC(=O)O)c4)c3)ccc2O[C@H]2O[C@H](CO)[C@@H](O)[C@H](O)[C@@H]2O)c1 [FORM 1, 1,6-Bis [3-(3-carboxymethylphenyl)-4-(2-α-D-mannopyranosyloxy)-phenyl] hexane]
Solubility ranking among the FORMS in PEG 300 (in words) ([1]; PEG 300, compared with other FORMS): highest solubility | Solubility in PEG 300 (Polyethylene glycol 300) [1, 3]: 205 mg/mL (≈ 238 mM) | Solubility ranking among the FORMS in Triacetin (in words) ([1]; Triacetin, compared with other FORMS): highest solubility | Solubility in Triacetin (glycerin triacetate) [1, 4]: 0.056 mg/mL (≈ 0.0649 mM) | Solubility in EtOH (Ethanol) [1, 5]: 4.2 mg/mL (≈ 4.87 mM) | Solubility in IPA (Isopropyl alcohol) [1, 6]: 3.9 mg/mL (≈ 4.52 mM) | solubility at 24 h ([1]; propylene glycol, 27 °C, organic solvent or mixture, thermodynamic from solid, equilibrated at 27° C. for 24 hours with shaking): 199 mg/mL (≈ 231 mM) | Solubility ranking among the FORMS in propylene glycol (in words) ([1]; propylene glycol, compared with other FORMS): highest solubility | solubility ([2]; 25 °C, water, thermodynamic from solid): 0.022 mg/mL (≈ 0.0255 mM)

Structure (SMILES): O=C(O)Cc1cccc(-c2cc(CCCCCCc3ccc(O[C@H]4O[C@H](CO)[C@@H](O)[C@H](O)[C@@H]4O)c(-c4cccc(CC(=O)O)c4)c3)ccc2O[C@H]2O[C@H](CO)[C@@H](O)[C@H](O)[C@@H]2O)c1 [FORM 2, 1,6-Bis [3-(3-carboxymethylphenyl)-4-(2-α-D-mannopyranosyloxy)-phenyl] hexane]
Solubility in PEG 300 (Polyethylene glycol 300) [1, 3]: 102 mg/mL (≈ 118 mM) | Solubility in Triacetin (glycerin triacetate) [1, 4]: 0.0083 mg/mL (≈ 0.00962 mM) | Solubility in EtOH (Ethanol) [1, 5]: 4.2 mg/mL (≈ 4.87 mM) | Solubility in IPA (Isopropyl alcohol) [1, 6]: 0.52 mg/mL (≈ 0.603 mM) | Solubility in Propylene Glycol ([1]; propylene glycol, equilibrated at 27° C. for 24 hours with shaking): 104 mg/mL (≈ 121 mM) | Solubility in water [2]: 0.015 mg/mL (≈ 0.0174 mM)

Second part, the compound after the results:

Solubility in water [2]: 0.014 mg/mL (≈ 0.0162 mM)
Structure (SMILES): O=C(O)Cc1cccc(-c2cc(CCCCCCc3ccc(O[C@H]4O[C@H](CO)[C@@H](O)[C@H](O)[C@@H]4O)c(-c4cccc(CC(=O)O)c4)c3)ccc2O[C@H]2O[C@H](CO)[C@@H](O)[C@H](O)[C@@H]2O)c1 [FORM 3, 1,6-Bis [3-(3-carboxymethylphenyl)-4-(2-α-D-mannopyranosyloxy)-phenyl] hexane]

Solubility in PEG 300 (Polyethylene glycol 300) ([1]; PEG 300, equilibrated at 27° C. for 24 hours with shaking, listed as 4): 159 mg/mL (≈ 184 mM) | Solubility in Triacetin (glycerin triacetate) [1, 4]: 0.02 mg/mL (≈ 0.0232 mM) | Solubility ranking among the FORMS in ethanol (in words) ([1]; ethanol, compared with FORM 1, 2, 4, 6): highest solubility | Solubility in EtOH (Ethanol) ([1]; ethanol, equilibrated at 27° C. for 24 hours with shaking, listed as 4): 48 mg/mL (≈ 55.6 mM) | Solubility in IPA (Isopropyl alcohol) ([1]; equilibrated at 27° C. for 24 hours with shaking, listed as 4): 1.2 mg/mL (≈ 1.39 mM) | Solubility in Propylene Glycol ([1]; propylene glycol, equilibrated at 27° C. for 24 hours with shaking, listed as 4): 165 mg/mL (≈ 191 mM)
Structure (SMILES): O=C(O)Cc1cccc(-c2cc(CCCCCCc3ccc(O[C@H]4O[C@H](CO)[C@@H](O)[C@H](O)[C@@H]4O)c(-c4cccc(CC(=O)O)c4)c3)ccc2O[C@H]2O[C@H](CO)[C@@H](O)[C@H](O)[C@@H]2O)c1 [FORM 4, 1,6-Bis [3-(3-carboxymethylphenyl)-4-(2-α-D-mannopyranosyloxy)-phenyl] hexane]

Solubility ranking among the FORMS in IPA (in words) ([1]; IPA, compared with FORM 1, 2, 4, 6): highest solubility | Solubility in PEG 300 (Polyethylene glycol 300) ([1]; PEG 300, equilibrated at 27° C. for 24 hours with shaking, listed as 6): 122 mg/mL (≈ 141 mM) | Solubility in EtOH (Ethanol) ([1]; ethanol, equilibrated at 27° C. for 24 hours with shaking, listed as 6): 20 mg/mL (≈ 23.2 mM) | Solubility in IPA (Isopropyl alcohol) ([1]; equilibrated at 27° C. for 24 hours with shaking, listed as 6): 27 mg/mL (≈ 31.3 mM) | Solubility in Propylene Glycol ([1]; propylene glycol, equilibrated at 27° C. for 24 hours with shaking, listed as 6): 170 mg/mL (≈ 197 mM)
Structure (SMILES): O=C(O)Cc1cccc(-c2cc(CCCCCCc3ccc(O[C@H]4O[C@H](CO)[C@@H](O)[C@H](O)[C@@H]4O)c(-c4cccc(CC(=O)O)c4)c3)ccc2O[C@H]2O[C@H](CO)[C@@H](O)[C@H](O)[C@@H]2O)c1 [FORM 6, 1,6-Bis [3-(3-carboxymethylphenyl)-4-(2-α-D-mannopyranosyloxy)-phenyl] hexane]

— patent publication US8039601B1, “Crystalline forms of 1,6-Bis [3-(3-carboxymethylphenyl)-4-(2-α-D-mannopyranosyloxy)-phenyl] hexane” (Revotar Biopharmaceuticals AG, priority 2006, dated 2011)
